“Also recorded” adds a separate entry of the source.

Here are results for seven compounds from article PMC11173628, “Imidazole Carbamates as a Promising Alternative for Treating Trichomoniasis: In Vitro Effects on the Growth and Gene Expression of Trichomonas vaginalis” (Molecules, 2024).

The test system of data set [1] is T. vaginalis trophozoites. Briefly: Kinetic growth curve of T. vaginalis in presence of compounds. The data set is classed as cell-based, Trichomonas vaginalis. The conditions noted are these: compound at its IC50, monitored up to 96 h. The method, then:
The trophozoites were incubated at the IC50 values for each compound. The viability and number of trophozoites were monitored at 6, 12, 18, 24, 48, 72, and 96 h with trypan blue (0.4%) (1:1, v/v) and XTT assays.
To understand the antiparasitic activities of the compounds against T. vaginalis cultures, we produced a curve of the kinetic growth of T. vaginalis as a function of time. […] Trophozoites were observed via light microscopy, and their growth and viability were evaluated at 6, 12, 24, 48, 72, and 96 h.

The next data set relates to CaCo-2 cells. In words: In vitro cytotoxicity assay (XTT), Caco-2. The following applies: CC50 CaCo-2 / IC50 trophozoites. The method, then: (§1) Concentration–response curves for the viability of (A) Caco-2 and (B) HT29 cells treated with increasing concentrations of AGR compounds. […] Cell viability was determined using trypan blue dye exclusion (0.4%) (1:1, v/v) in a Neubauer chamber, as well as an XTT proliferation assay. Values represent the mean ± standard deviation of three independent experiments.
(§2) The Caco-2 and HT29 cell lines were provided by Luz Maria Rocha Ramirez from Hospital Infantil de México Federico Gómez, Secretaría de Salud. Cells were cultured in DMEM medium supplemented with 10% fetal bovine serum, 1% L-glutamine, and 1% penicillin/streptomycin at 37 °C in a 5% CO2 atmosphere. […] After incubation, cell viability was assessed using the XTT assay. The results are expressed as a percentage of viable cells compared with untreated cells. The cytotoxic concentration 50 (CC50) was calculated using GraphPad Prism 7.0 software. […] The assay was performed at least three times in triplicate. The selectivity index (SI) was calculated as SI = cells CC50/trophozoites IC50.
On the technique in general: Tetrazolium assays rely on reduction of a dye to a coloured formazan, in cell work by metabolically active cells.

The nature of data set [2]: In vitro cytotoxicity assay (XTT), Caco-2. The conditions noted are these: human. The procedure: as §1, §2
The test system of data set [3] is T. vaginalis trophozoites (metabolic gene transcripts). In words: Relative gene expression of T. vaginalis in presence of compounds (RT-qPCR, 2^-ΔΔCt, PK reference gene). The data set is classed as cell-based, Trichomonas vaginalis. The conditions noted are these: 24 h at IC50 concentration; for Increase of PFK transcripts: vs untreated control. The procedure:
The main carbon and energy source for T. vaginalis is the fermentative carbohydrate metabolism. We sought to determine whether the death of T. vaginalis is related to changes in its metabolic genes. A gene expression assay based on RT-qPCR was performed to evaluate the transcription levels of several genes in T. vaginalis trophozoites that were incubated for 24 h at the IC50 concentration for each compound.
To evaluate the expression levels of the genes involved in the metabolism of T. vaginalis in the absence and presence of trichomonacidal compounds, the genetic expression levels of 15 genes were analyzed by means of real-time RT-qPCR. To this end, genes encoding enzymes involved in essential metabolic pathways for cell survival, such as glycolysis, the pentose phosphate pathway, structural proteins, and redox maintenance, were identified using the GenBank database (https://www.ncbi.nlm.nih.gov/genbank/ accessed on 15 January 2023) (Table 3).
The total RNA from trophozoites in the absence and presence of the compound was extracted using TRIzol® Reagent (Invitrogen, Carlsbad, CA, USA) according to the manufacturer’s instructions. The quality of RNA was assessed at 260/280 nm, and the integrity was assessed by 2.0% (w/v) agarose gel electrophoresis. For synthesis of the cDNA, samples were treated with 1 U of DNAase I enzyme (Thermo Fisher Scientific, Waltham, MA, USA). cDNA was synthesized using the primers Oligo (dT) 18 (Thermo Fisher Scientific) and RevertAid reverse transcriptase (Thermo Fisher Scientific). All synthesized cDNAs were quantified and stored at −70 °C until use.
We evaluated the expression levels of genes involved in the metabolism of T. vaginalis trophozoites in the absence and presence of trichomonacidal compounds. The amplification of the specific PCR products and the specificity of the primers of the genes proposed in this study (Table 4) were determined using the Fast SYBR® Green Master Mix kit (Applied Biosystems, Foster City, CA, USA) in the StepOnePlusTM Real-Time PCR Systems platform (Life Technologies, Foster City, CA, USA), which was carried out according to the method previously reported by Gutiérrez-Cardona et al..
The relative changes in the expression levels of the target genes (PK, CK, PFK, ALDO, TPI, GAPDH, ENOL, G6PD, 6PGDH, TKT, TALDO, PFOR, NADH, ACT, and TUB) were analyzed by the 2^−ΔΔCt method, using the PK reference gene for normalization. The curve was fitted with GraphPad Prism 8 software (GraphPad Software Inc., La Jolla, CA, USA), and statistical analysis was performed. ANOVA and the Tukey–Kramer test were used to evaluate the relative change in expression after normalization. Three replicates were included for each treatment, and all reactions were performed in triplicate.
In general terms: Quantitative PCR measures a nucleic acid by following its amplification.

The test system of data set [4] is T. vaginalis Donne ATCC 30236 trophozoites. In words: Determination of IC50 values (anti-Trichomonas activity, trypan blue and XTT). The data set is classed as cell-based, Trichomonas vaginalis. The following applies: for IC50: Trichomonas vaginalis, ATCC30236, T. vaginalis Donne ATCC 30236, 24 h, 37 °C, 0–10 µM, trypan blue and XTT, read-out: IC50 (viability of T. vaginalis trophozoites); for Enhancement of trichomonacidal effect in relation to MTZ: ratio of IC50 values vs MTZ; for Enhancement of trichomonacidal effect in relation to NTZ: ratio of IC50 values vs NTZ. The method, then:
Figure 2 Determination of the IC50 values of AGR compounds on the culture of Trichomonas vaginalis. […] The trophozoites were incubated in the presence of the compounds for 24 h at 37 °C with different concentrations of each compound. Values represent the mean ± standard deviation of three independent experiments.
The T. vaginalis Donne ATCC 30236 strain was acquired from the ATCC (American Type Culture Collection). It was cultured axenically in trypticase–yeast extract–maltose medium (TYM, at pH 6.0) supplemented with 10% sterile horse serum (previously inactivated at 56 °C for 30 min) and incubated at 37 °C [42]. The trophozoites were analyzed via motility, morphology, and trypan blue dye exclusion assays (0.4%) under an optical microscope with a magnification of 40×. The parasites were cultured for 24 h at 37 °C, corresponding to the logarithmic growth phase, and were used for anti-Trichomonas assays.
The anti-Trichomonas activity was evaluated in 1.5 mL tubes, where 2.6 × 10^5 trophozoites/mL was treated with increasing concentrations (0–10 µM) of the selected compounds. The tubes were incubated at 37 °C for 24 h. Then the trypan blue dye exclusion and XTT assay tests were used for evaluations of cell viability, as previously described. […] The IC50 values were calculated using GraphPad Prism 8.0 Inc. software, Version 8.0.2 (263) (San Diego, CA, USA).

Data set [5] is described as follows: In vitro cytotoxicity assay (XTT), HT29. The conditions noted are these: human. The procedure: as §1, §2
The next data set concerns HT29 cells. In words: In vitro cytotoxicity assay (XTT), HT29. The following applies: CC50 HT29 / IC50 trophozoites. The method, then:
as §1, §2

Setting [6] is: Caco-2, CaCo-2 CC50, 48 h, 0–500 µM, XTT.
[7] abbreviates: HT29 cells, HT29 CC50, 48 h, 0–500 µM, XTT.

`Cc1ncc([N+](=O)[O-])n1CCOC(=O)NC1CCCCC1` [AGR-1]: in data set [1], the “Effect on kinetic growth curve of T. vaginalis” value (“Effect on kinetic growth curve” for short) was “more significant delay in the logarithmic and stationary phases”. In addition, the “CaCo-2 SI (CC50/IC50)” value with CaCo-2 cells is given as 970.0. The same compound registered a CC50 at 48 h in data set [2] (setting [6]) of 650 µM. Also, in data set [3], the “Effect on ALDO expression” value was “increased”, the “Expression of NADH oxidase gene” value was “decreased”, the “Overexpression of PFOR” value is 11 fold and the “Increase of PFK transcripts” value worked out at 1.2 fold. Further, in data set [4], the IC50 came to 0.67 µM, the “Enhancement of trichomonacidal effect in relation to MTZ” value (shortened to “Enhancement … to MTZ”) was “fivefold” and the “Enhancement of trichomonacidal effect in relation to NTZ” value (from here on “Enhancement … to NTZ”) is on record as 10 fold. The half-maximal cytotoxic concentration (CC50) at 48 h in data set [5] (setting [7]) was 532 µM. For the same compound, the “HT29 SI (CC50/IC50)” value in the data set with HT29 cells is on record as 794.
For `Cc1ncc([N+](=O)[O-])n1CCOC(=O)Nc1ccccc1` [AGR-2], the “Effect on kinetic growth curve” value in data set [1] was “more significant delay in the logarithmic and stationary phases”. In addition, the “CaCo-2 SI (CC50/IC50)” value in the data set on CaCo-2 cells is over 1000. The compound also had a CC50 at 48 h in data set [2] (setting [6]) of 560 µM. In data set [3], the “Effect on ALDO expression” value is recorded as “reduced”, the “Effect on GAPDH expression” value is listed as “reduced”, the “Expression of NADH oxidase gene” value was “decreased” and the “Overexpression of PFOR” value is 7.5 fold. Besides, the “Increase of PFK transcripts” value in data set [3] is 1.5 fold. Besides, in data set [4], the IC50 was found to be 0.4 µM, the “Enhancement … to MTZ” value came to 8 fold and the “Enhancement … to NTZ” value was determined as 16 fold. The same compound gave a CC50 at 48 h in data set [5] (setting [7]) of 730 µM. In addition, the “HT29 SI (CC50/IC50)” value with HT29 cells was over 1000.
On to `Cc1ncc([N+](=O)[O-])n1CCOC(=O)Nc1ccc(Cl)cc1` [AGR-3], for which the “CaCo-2 SI (CC50/IC50)” value in the data set on CaCo-2 cells was found to be 817.1. In data set [2] (setting [6]), this compound displayed a CC50 at 48 h of 523 µM. In data set [3], the “Effect on ALDO expression” value is “reduced”, the “Effect on GAPDH expression” value is on record as “reduced”, the “Effect on PFK expression” value is given as “negatively affected” and the “Overexpression of PFOR” value was found to be 7.5 fold. In data set [4], the IC50 came out at 0.64 µM, the “Enhancement … to MTZ” value is reported as “fivefold” and the “Enhancement … to NTZ” value was 10 fold. Besides, the half-maximal cytotoxic concentration (CC50) at 48 h in data set [5] (setting [7]) came to 660 µM. In addition, in the data set with HT29 cells, the “HT29 SI (CC50/IC50)” value was over 1000.
For the compound `Cc1ncc([N+](=O)[O-])n1CCOC(=O)Nc1ccc(F)cc1` [AGR-4], the “Effect on kinetic growth curve” value in data set [1] was “more significant delay in the logarithmic and stationary phases; also recorded: inhibited the growth of the parasite to a greater degree”. Further, in the data set on CaCo-2 cells, the “CaCo-2 SI (CC50/IC50)” value came out at 531.2. Also, in data set [2] (setting [6]), the midpoint of cytotoxicity, the CC50 at 48 h, lay at 510 µM. Also, in data set [3], the “Decrease in the expression of PFOR” value is 1.5 fold, the “Effect on ALDO expression” value is recorded as “reduced”, the “Effect on GAPDH expression” value was “reduced” and the “Effect on PFK expression” value is listed as “negatively affected”. The “Expression of NADH oxidase gene” value in data set [3] was “decreased”. Besides, the IC50 in data set [4] amounted to 0.96 µM. The CC50 at 48 h in data set [5] (setting [7]) amounted to 593 µM. The “HT29 SI (CC50/IC50)” value in the data set on HT29 cells worked out at 617.
As for `Cc1ncc([N+](=O)[O-])n1CCOC(=O)Nc1ccc([N+](=O)[O-])cc1` [AGR-5], the “CaCo-2 SI (CC50/IC50)” value in the data set with CaCo-2 cells was 400. Moreover, the CC50 at 48 h in data set [2] (Caco-2) is 580 µM. Moreover, in data set [3], the “Effect on PFK expression” value was “negatively affected”, the “Expression of NADH oxidase gene” value is recorded as “decreased” and the “Overexpression of PFOR” value came to 2.5 fold. For the same compound, the 50% inhibitory concentration (IC50) in data set [4] came out at 1.45 µM. Besides, the CC50 at 48 h in data set [5] was found to be 560 µM. Moreover, the “HT29 SI (CC50/IC50)” value with HT29 cells is given as 386.
For the compound `Cc1ncc([N+](=O)[O-])n1CCO` [MTZ, metronidazole, reference compound], the IC50 in data set [4] stood at 3.1 µM.
For the compound `CC(=O)Oc1ccccc1C(=O)Nc1ncc([N+](=O)[O-])s1` [NTZ, nitazoxanide, reference compound], the “CaCo-2 SI (CC50/IC50)” value with CaCo-2 cells is 87.6. In data set [4], the IC50 came to 6.62 µM. Moreover, in the data set with HT29 cells, the “HT29 SI (CC50/IC50)” value was found to be 95.7.

As usually defined, the CC50 is the concentration giving 50% cytotoxicity. Higher therefore signals better tolerance by the cells. Usually IC50 stands for the concentration that inhibits the measured activity by half.
